Measurements taken from patent publication US9896443B2, “Perforin inhibiting benzenesulfonamide compounds, preparation and uses thereof” (Peter MacCallum Cancer Institute, priority 2012, dated 2018).
Read-outs that look alike come from different tables or passages of the source. Blank lines part the entries; values can stand above or below the compound they belong to.

Assays:
recombinant perforin = recombinant perforin (UniProt P10820); assay type: cell-based
Experimental: Inhibition of perforin-mediated lysis of Jurkat cells.
The ability of the compounds to inhibit the lysis of nucleated (Jurkat T lymphoma) cells in the presence of 0.1% BSA, as measured by release of ^51Cr was measured. Jurkat target cells were labelled by incubation in medium with 100 μCi ^51Cr for one hour. The cells were then washed three times to remove unincorporated isotope and re-suspended at 1×10^5 cells per mL in RPMI buffer supplemented with 0.1% BSA. […] Each data point was performed in triplicate and an IC50 was calculated from the range of concentrations described to above.

[1] = system: KHYG-1 NK cell-mediated lysis of K562 cells; assay: Inhibition of KHYG-1 NK cell-mediated lysis of K562 cells (51Cr release); assay type: cell-based; conditions: K562 target cells, Effector:Target 2:1, 4 hours at 37° C.
Experimental: Inhibition of KHYG-1 NK Cell-Mediated Lysis of K562 Cells.
Test compounds were added to KHYG-1 cells at various concentrations up to 20 µM and incubated at RT for 20 minutes. 1×10^6 K562 target cells were labelled with 75 μCi ^51Cr in 200 μl RPMI for 90 mins at 37° C., cells were washed as described above and resuspended in 5 ml RPMI+0.1% BSA. 50 μl of ^51Cr labelled K562 leukemia target cells were added to each well of the KHYG-1 plate (Effector:Target 2:1) and incubated at 37° C. for 4 hours. ^51Cr release was assayed using a Skatron Harvesting Press and radioactivity estimated on a Wallac Wizard 1470 Automatic Gamma counter (Turku, Finland). The percentage of specific cytotoxicity was calculated by the formula: […]

[2] = lysis of Jurkat T lymphoma cells by recombinant perforin, 0.1% BSA, 30 min pre-incubation, 4 hours at 37° C.; read-out: Jurkat IC50
[3] = read-out: Jurkat IC50; lysis of Jurkat T lymphoma cells by recombinant perforin, 0.1% BSA, 30 min pre-incubation, 4 hours at 37° C.

Chain of recombinant perforin (P10820 whole entry): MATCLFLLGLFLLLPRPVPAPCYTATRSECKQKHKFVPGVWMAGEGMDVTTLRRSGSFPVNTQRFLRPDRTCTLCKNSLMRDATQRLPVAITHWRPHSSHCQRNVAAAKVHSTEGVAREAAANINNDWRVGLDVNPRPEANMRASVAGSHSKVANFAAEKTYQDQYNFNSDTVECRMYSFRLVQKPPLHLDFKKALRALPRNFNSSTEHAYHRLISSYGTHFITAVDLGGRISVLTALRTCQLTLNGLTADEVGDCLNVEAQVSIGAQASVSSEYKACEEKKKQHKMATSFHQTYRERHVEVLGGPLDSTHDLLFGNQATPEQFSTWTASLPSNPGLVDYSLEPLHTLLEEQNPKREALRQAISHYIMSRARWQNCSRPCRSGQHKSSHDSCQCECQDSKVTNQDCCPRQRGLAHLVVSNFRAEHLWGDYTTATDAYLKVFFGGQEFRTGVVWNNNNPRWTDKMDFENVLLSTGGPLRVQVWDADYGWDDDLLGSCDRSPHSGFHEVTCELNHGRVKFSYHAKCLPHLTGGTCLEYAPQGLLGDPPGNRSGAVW

SMILES: Cc1ccc(NS(=O)(=O)c2ccccn2)cc1-c1ccc(-c2ccc3c(c2)CN(C)C3=O)s1 [Compound 60, N-(4-Methyl-3-(5-(2-methyl-1-oxoisoindolin-5-yl)thiophen-2-yl)phenyl)pyridine-2-sulfonamide]
IC50 (recombinant perforin; [2]): 15.4 µM
inhibition at 20 µM ([1]; 4 h): 17%
melting point: 274 to 277 °C

SMILES: CN1Cc2cc(-c3ccc(-c4cncc(N(C)S(=O)(=O)c5ccc(F)cc5F)c4)s3)ccc2C1=O [Compound 46, 2,4-Difluoro-N-methyl-N-(5-(5-(2-methyl-1-oxoisoindolin-5-yl)thiophen-2-yl)pyridin-3-yl)benzenesulphonamide]
IC50 (recombinant perforin; [2]): 9.13 µM
inhibition at 20 µM ([1]; 4 h): 28%
melting point: 200 to 202 °C

SMILES: CN1Cc2cc(-c3ccc(-c4cncc(NS(=O)(=O)c5ccccn5)c4)s3)ccc2C1=O [Compound 31, N-(5-(5-(2-Methyl-1-oxoisoindolin-5-yl)thiophen-2-yl)pyridin-3-yl)pyridine-2-sulfonamide]
IC50 (recombinant perforin; [2]): 0.74 µM
inhibition at 20 µM ([1]; 4 h): 19%
melting point: 272 to 275 °C

SMILES: CC(=O)c1cn(C)c2ccc(-c3ccc(-c4cncc(NS(=O)(=O)c5ccc(F)cc5F)c4)s3)cc12 [Compound 59, N-(5-(5-(3-Acetyl-1-methyl-1H-indol-5-yl)thiophen-2-yl)-pyridin-3-yl)-2,4-difluorobenzenesulfonamide]
IC50 (recombinant perforin; [3]): 11.2 µM
inhibition at 20 µM ([1]; 4 h): 72%
melting point: 241 to 244 °C

SMILES: CN1Cc2ccc(-c3ccc(-c4cncc(NS(=O)(=O)c5ccc(F)cc5F)c4)s3)cc2C1=O [Compound 50, 2,4-Difluoro-N-(5-(5-(2-methyl-3-oxoisoindolin-5-yl)thiophen-2-yl)pyridin-3-yl)benzenesulfonamide]
IC50 (recombinant perforin; [3]): 10.4 µM
inhibition at 20 µM ([1]; 4 h): 27%
melting point: 292 to 295 °C

SMILES: COc1ncc(-c2ccc(-c3ccc4c(c3)CN(C)C4=O)s2)cc1NS(=O)(=O)c1ccc(F)cc1F [Compound 37, 2,4-Difluoro-N-(2-methoxy-5-(5-(2-methyl-1-oxoisoindolin-5-yl)thiophen-2-yl)pyridin-3-yl)benzenesulphonamide]
IC50 (recombinant perforin; [2]): 3.56 µM
inhibition at 20 µM ([1]; 4 h): 36%
melting point: 224 to 227 °C

SMILES: CCCCn1cc(C(C)=O)c2cc(-c3ccc(-c4cncc(NS(=O)(=O)c5ccc(F)cc5F)c4)s3)ccc21 [Compound 58, N-(5-(5-(3-Acetyl-1-butyl-1H-indol-5-yl)thiophen-2-yl)pyridin-3-yl)-2,4-difluorobenzenesulfonamide]
IC50 (recombinant perforin; [2]): 5.5 µM
inhibition at 20 µM [1]: 64%
melting point: 188 to 191 °C

SMILES: COc1cccc(S(=O)(=O)Nc2cncc(-c3ccc(-c4ccc5c(c4)CN(C)C5=O)s3)c2)c1 [Compound 19, 3-Methoxy-N-(5-(5-(2-methyl-1-oxoisoindolin-5-yl)thiophen-2-yl)pyridin-3-yl)benzenesulfonamide]
IC50 (recombinant perforin; [2]): 2.56 µM
inhibition at 20 µM ([1]; 4 h): 17%
melting point: 278 to 280 °C

SMILES: COc1ncc(-c2ccc(-c3ccc4c(c3)CNC4=O)s2)cc1NS(=O)(=O)c1ccc(F)cc1F [Compound 38, 2,4-Difluoro-N-(2-methoxy-5-(5-(1-oxoisoindolin-5-yl)thiophen-2-yl)pyridin-3-yl)benzene sulphonamide]
IC50 (recombinant perforin; [2]): 5.41 µM
melting point: 266 to 270 °C

SMILES: CN1Cc2cc(-c3ccc(-c4cncc(NS(=O)(=O)c5cccc(Cl)c5)c4)s3)ccc2C1=O [Compound 10, 3-Chloro-N-(5-(5-(2-methyl-1-oxoisoindolin-5-yl)thiophen-2-yl)pyridin-3-yl)benzenesulfonamide]
IC50 (recombinant perforin; [2]): 2.42 µM
inhibition at 20 µM ([1]; 4 h): 31%
melting point: 291 to 295 °C

SMILES: CN1Cc2cc(-c3ccc(-c4cncc(S(=O)(=O)Nc5ccc(F)cc5F)c4)s3)ccc2C1=O [Compound 44, N-(2,4-Difluorophenyl)-5-(5-(2-methyl-1-oxoisoindolin-5-yl)thiophen-2-yl)pyridine-3-sulphonamide]
IC50 (recombinant perforin; [2]): 2.24 µM
inhibition at 20 µM ([1]; 4 h): 57%
melting point: 221 to 224 °C

SMILES: COc1ccccc1S(=O)(=O)Nc1cncc(-c2ccc(-c3ccc4c(c3)CN(C)C4=O)s2)c1 [Compound 18, 2-Methoxy-N-(5-(5-(2-methyl-1-oxoisoindolin-5-yl)thiophen-2-yl)pyridin-3-yl)benzenesulfonamide]
IC50 (recombinant perforin; [2]): 14.8 µM
melting point: 273 to 276 °C

SMILES: CN1Cc2cc(-c3ccc(-c4ccnc(NS(=O)(=O)c5ccc(F)cc5F)c4)s3)ccc2C1=O [Compound 41, 2,4-Difluoro-N-(4-(5-(2-methyl-1-oxoisoindolin-5-yl)thiophen-2-yl)pyridin-2-yl)benzenesulfonamide]
IC50 (recombinant perforin; [2]): 4.7 µM
inhibition at 20 µM ([1]; 4 h): 14%
melting point: 235 to 239 °C

SMILES: CN1Cc2cc(-c3ccc(-c4cncc(NS(=O)(=O)c5ccc(Cl)cc5Cl)c4)s3)ccc2C1=O [Compound 13, 2,4-Dichloro-N-(5-(5-(2-methyl-1-oxoisoindolin-5-yl)thiophen-2-yl)pyridin-3-yl)benzene-sulfonamide]
IC50 (recombinant perforin; [2]): 15 µM
melting point: 282 to 285 °C

SMILES: CN1Cc2cc(-c3ccc(-c4cncc(NS(=O)(=O)c5ccccc5Br)c4)s3)ccc2C1=O [Compound 15, 2-Bromo-N-(5-(5-(2-methyl-1-oxoisoindolin-5-yl)thiophen-2-yl)pyridin-3-yl)benzenesulfonamide]
IC50 (recombinant perforin; [2]): 2.66 µM
inhibition at 20 µM ([1]; 4 h): 42%
melting point: 289 to 293 °C

SMILES: CN1Cc2cc(-c3ccc(-c4cncc(NS(=O)(=O)c5ccccc5F)c4)s3)ccc2C1=O [Compound 4, 2-Fluoro-N-(5-(5-(2-methyl-1-oxoisoindolin-5-yl)thiophen-2-yl)pyridin-3-yl)benzene-sulfonamide]
IC50 (recombinant perforin; [2]): 2.03 µM
inhibition at 20 µM ([1]; 4 h): 40%
melting point: 289 to 292 °C

SMILES: CN1Cc2cc(-c3ccc(-c4cccc(NS(=O)(=O)c5ccc(F)cc5F)c4)s3)ccc2C1=O [Compound 43, 2,4-Difluoro-N-(3-(5-(2-methyl-1-oxoisoindolin-5-yl)thiophen-2-yl)phenyl)benzene sulphonamide]
IC50 (recombinant perforin; [2]): 5.74 µM
inhibition at 20 µM ([1]; 4 h): 18%
melting point: 260 to 262 °C

SMILES: CN1Cc2cc(-c3ccc(-c4cncc(NS(=O)(=O)c5ccc(Br)cc5)c4)s3)ccc2C1=O [Compound 17, 4-Bromo-N-(5-(5-(2-methyl-1-oxoisoindolin-5-yl)thiophen-2-yl)pyridin-3-yl)benzenesulfonamide]
IC50 (recombinant perforin; [2]): 8.77 µM
inhibition at 20 µM ([1]; 4 h): 6%
melting point: 276 to 279 °C

SMILES: CN1Cc2cc(-c3ccc(-c4cncc(NS(=O)(=O)c5ccccc5OC(F)(F)F)c4)s3)ccc2C1=O [Compound 22, N-(5-(5-(2-Methyl-1-oxoisoindolin-5-yl)thiophen-2-yl)pyridin-3-yl)-2-(trifluoromethoxy)benzenesulfonamide]
IC50 (recombinant perforin; [2]): 17.7 µM
melting point: 251 to 254 °C

SMILES: Cc1ccc(S(=O)(=O)Nc2cncc(-c3ccc(-c4ccc5c(c4)CN(C)C5=O)s3)c2)cc1Cl [Compound 27, 3-Chloro-4-methyl-N-(5-(5-(2-methyl-1-oxoisoindolin-5-yl)thiophen-2-yl)pyridin-3-yl)benzenesulfonamide]
inhibition at 20 µM ([1]; 4 h): 52%
melting point: 277 to 279 °C

melting point: 280 to 283 °C
SMILES: CN1CCc2ccc(-c3ccc(-c4cncc(NS(=O)(=O)c5ccc(F)cc5F)c4)s3)cc2C1=O [Compound 55, 2,4-Difluoro-N-(5-(5-(2-methyl-1-oxo-1,2,3,4-tetrahydroisoquinolin-7-yl)thiophen-2-yl)pyridin-3-yl)benzenesulfonamide]
inhibition at 20 µM ([1]; 4 h): 0%

SMILES: CN1Cc2cc(-c3ccc(-c4cncc(NS(=O)(=O)c5cccnc5)c4)s3)ccc2C1=O [Compound 32, N-(5-(5-(2-Methyl-1-oxoisoindolin-5-yl)thiophen-2-yl)pyridin-3-yl)pyridine-3-sulfonamide]
IC50 (recombinant perforin; [2]): 15.1 µM
melting point: 283 to 286 °C

melting point: 282 to 285 °C
SMILES: CN1Cc2cc(-c3ccc(-c4cncc(NS(=O)(=O)c5ccc(F)c(F)c5)c4)s3)ccc2C1=O [Compound 7, 3,4-Difluoro-N-(5-(5-(2-methyl-1-oxoisoindolin-5-yl)thiophen-2-yl)pyridin-3-yl)benzene-sulfonamide]

melting point: 262 to 265 °C
SMILES: CN1CCc2cc(-c3ccc(-c4cncc(NS(=O)(=O)c5ccc(F)cc5F)c4)s3)ccc2C1=O [Compound 53, 2,4-Difluoro-N-(5-(5-(2-methyl-1-oxo-1,2,3,4-tetrahydroisoquinolin-6-yl)thiophen-2-yl)pyridin-3-yl)benzenesulfonamide]

melting point: 267 to 269 °C
SMILES: CN1Cc2cc(-c3ccc(-c4cncc(NC(=O)c5ccc(F)cc5F)c4)s3)ccc2C1=O [Compound 47, 2,4-Difluoro-N-(5-(5-(2-methyl-1-oxoisoindolin-5-yl)thiophen-2-yl)pyridin-3-yl)benzamide]
